# Measurements published in ChEMBL document CHEMBL1124936, “Synthesis and antifolate properties of 9-alkyl-10-deazaminopterins” (J Med Chem, 1990).
# Tests used:
# Dihydrofolate reductase [1] = biological target: T1, Dihydrofolate reductase (Mus musculus, UniProt P00375); assay: Concentration inhibiting dihydrofolate reductase derived from L1210 cells; format: cell-based
# T1 sequence (P00375 whole entry): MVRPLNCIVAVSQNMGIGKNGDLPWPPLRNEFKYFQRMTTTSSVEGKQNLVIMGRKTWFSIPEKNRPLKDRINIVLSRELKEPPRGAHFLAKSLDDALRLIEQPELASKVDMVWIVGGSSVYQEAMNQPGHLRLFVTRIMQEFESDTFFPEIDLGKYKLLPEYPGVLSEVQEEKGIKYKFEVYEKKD
# L1210 = assay: Concentration inhibiting L1210 cell growth in culture; format: functional, cell-based; conditions: Mus musculus
# [2] = biological target: reduced folate carrier (Mus musculus); assay: Binding affinity towards Dihydrofolate reductase derived from L1210 cells using [3H]- MTX as the radioligand
# Dihydrofolate reductase [3] = biological target: T1, Dihydrofolate reductase; assay: Concentration inhibiting Dihydrofolate reductase derived from L1210 cells; format: cell-based
# [4] = Concentration inhibiting Glycinamide ribotide formyltransferase of Lactobacillus casei; design: species or system Lacticaseibacillus casei
# Thymidylate synthase = biological target: T2, Thymidylate synthase (Lactobacillus casei, UniProt P00469); assay: Concentration inhibiting thymidylate synthase enzyme of Lactobacillus casei; design: species or system Lacticaseibacillus casei
# T2 sequence (P00469 whole entry): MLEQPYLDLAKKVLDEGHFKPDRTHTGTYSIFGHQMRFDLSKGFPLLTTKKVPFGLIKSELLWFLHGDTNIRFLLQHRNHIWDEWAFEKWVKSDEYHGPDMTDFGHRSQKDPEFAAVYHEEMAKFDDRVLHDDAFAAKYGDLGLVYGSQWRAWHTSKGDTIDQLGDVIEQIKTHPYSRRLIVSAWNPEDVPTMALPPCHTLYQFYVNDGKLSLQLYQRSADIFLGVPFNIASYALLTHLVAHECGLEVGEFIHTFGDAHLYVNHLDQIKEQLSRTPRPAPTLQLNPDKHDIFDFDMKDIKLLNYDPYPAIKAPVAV
# Dihydrofolate reductase [5] = biological target: T3, Dihydrofolate reductase (Homo sapiens, UniProt P00374); assay: Inhibitory activity towards dihydrofolate reductase derived from human manca leukemia cells
# T3 sequence (P00374 whole entry): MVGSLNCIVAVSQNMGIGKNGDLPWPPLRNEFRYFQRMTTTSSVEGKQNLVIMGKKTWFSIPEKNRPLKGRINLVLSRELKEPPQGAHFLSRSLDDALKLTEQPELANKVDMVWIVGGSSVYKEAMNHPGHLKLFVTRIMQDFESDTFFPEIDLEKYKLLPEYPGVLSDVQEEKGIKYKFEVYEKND
Structure (SMILES),IC50 (L1210) [nM],IC50 (Thymidylate synthase) [nM],also measured
Nc1nc(N)c2nc(CCc3ccc(C(=O)N[C@@H](CCC(=O)O)C(=O)O)cc3)cnc2n1,1.5,,Ki (Dihydrofolate reductase [1]): 0.0034 nM; Ki [2]: 1200 nM
CCC(Cc1ccc(C(=O)NC(CCC(=O)O)C(=O)O)cc1)c1cnc2nc(N)nc(N)c2n1 (configuration not stated),4.7,> 100000,Ki (Dihydrofolate reductase [3]): 0.0055 nM; IC50 [4]: > 50000 nM
CC(Cc1ccc(C(=O)NC(CCC(=O)O)C(=O)O)cc1)c1cnc2nc(N)nc(N)c2n1 (configuration not stated),0.24,> 100000,IC50 (Dihydrofolate reductase [5]): 40 nM
CCC(Cc1cnc2nc(N)nc(N)c2n1)c1ccc(C(=O)N[C@@H](CCC(=O)O)C(=O)O)cc1 (some centres not stated) [EDATREXATE],0.65,,
CN(Cc1cnc2nc(N)nc(N)c2n1)c1ccc(C(=O)N[C@@H](CCC(=O)O)C(=O)O)cc1 [METHOTREXATE],5,,
